Measured values taken from paper PMC7754465, “Multiparameter Kinetic Analysis for Covalent Fragment Optimization by Using Quantitative Irreversible Tethering (qIT)” (Chembiochem, 2020).

Molecular target: T1, Cdk2(ES) (Homo sapiens, UniProt P24941, C177A/F80C)
T1 construct: GST (N, cleaved yes); made in house; host or cells: E. coli Tuner(DE3)
Experiment: concentration-dependent qIT with hyperbolic regression (Ki, kinact)
Assay type: binding
Conditions: roughly linear dependency up to 500 μM
Description: Next we sought to carry out comprehensive kinetic analysis of the covalent binding to better understand the covSAR trends. Accordingly, the concentration dependency for the rate of reaction between Cdk2(ES) and key acrylamides 1, 6, 9 and 11 were determined using qIT (Figure 7c). To maintain pseudo‐first‐order reaction kinetics and stay within the solubility limits of the fragments, ligands were titrated from 25 to 500 μM. […] Indeed, comparing the binding conformations of the merged (9 and 11) and parent (1 and 6) fragments, we observe a subtle shift in the position of the core scaffolds and the orientation of the acrylamide link that likely explains the jump in potency that resulted from fragment merging. Overall, comparing acrylamides 9 and 11, we observe in a 3.7‐fold increase in k inact/K i and a 4.3‐fold increase in REF, and the consistency between these two orthogonal metrics of covalent fragment potency is encouraging for future applications of qIT to covalent fragment optimization.
H. Intact-protein mass spectrometry
Protein-mass data were obtained on a Waters micromass LC-TOF mass spectrometer in positive ion mode using electrospray ionization. Samples were chromatographed using an Acquity UPLC protein BEH C4 column (2.1 mm × 50 mm, 2.7 µm) with a flow rate of 30 µL/min. The injection volume was 5 µL of protein solution (5 µM) in 30 mM ammonium bicarbonate buffer con-taining 0.5% formic acid and 20% MeOH. The gradient used was 100% mobile phase A (0.1% formic acid in water/MeOH (19:1)) ramping linearly to 90% mobile phase B (0.1% formic acid in MeOH) over 5 minutes. The spectra were acquired from 500 to 2500 Da and deconvolution was performed with MassLynx (Waters), using the maximum entropy algorithm, over a mass range of […] with a mass step of 0.75. […]
Cdk2(WT) or Cdk2(ES) (1 mg) was sequentially incubated with aliquots of CAK1 (3 × 0.05 mg) at r.t. for 4 hours at a time in 1.5 mL of a 30 mM Tris/HCl buffer (pH 7.5) containing 10 mM MgCl2, 10 mM ATP and 3 mM DTT. As CAK1 appeared to be-come rapidly inactivated in the presence of pCdk2, three repetitions were required to drive the reaction to completion. The resulting solution was incubated with 50 µL of glutathione-Sepharose beads and filtered to remove remaining CAK1.
Kinase assays were performed by coupling the conversion of ATP into ADP to the oxidation of NADH (Abs = 340 nm) into NAD+, mediated by lactate dehydrogenase (LDH) and pyruvate kinase (PK). WT, mutant or ligand-conjugated pCdk2 (12.5 or 50 nM) was preincubated with Cyclin A2 (20 nM) in a buffer containing 50 mM Tris/HCl, 10 mM MgCl2, 5 mM DTT, 1 mM phosphoenolpyruvate, 0.24 mM NADH, 10 U mL-1 LDH, 14 U mL-1 PK and 5% DMSO at 37 °C for 30 minutes. Reactions were initiated by addition of 0.5 mM ATP and 0.24 mM substrate peptide (PKTPKKAKKL) and the absorbance at 340 nm was moni-tored for two hours. Assays were conducted at 37 °C and carried out in clear 384-well plates (Nunc) using a SpectraMax i3x plate reader (Molecular Devices) with a final volume of 20 µL in each well. After plotting Abs 340 against time, enzyme velocity was measured from the gradient during the linear phase of product accumulation.
Q. Concentration dependent qIT
The rate of reaction (kobs) for the reaction between each acrylamide (25, 50, 125, 250 and 500 µM) with Cdk2(ES) (5 µM) was determined us qIT (see D. Rate Determination by qIT) in duplicate. The average kobs was plotted against acrylamide concen-tration and hyperbolic regression analysis performed using Prism 8.0 software (GraphPad) to derive kinact and Ki.

With `C=CC(=O)N1CCCc2cc(C(=O)OC)ccc21` [compound 1] the Ki was > 1000 µM.
In the case of `C=CC(=O)N1CCN(CC)c2ccccc21` [compound 6], the Ki is reported as > 1000 µM.
